Measured values as given in PubChem BioAssay AID2305 (GlaxoSmithKline (GSK), 2010).

Each compound was assayed on P. falciparum 3D7 growth, pLDH absorbance (assay: P. falciparum 3D7 growth inhibition, dose response, strain 3D7 (AID 2305)).
`CN1CCN(CC(=O)Nc2cccc(-c3cccc(-c4nc5ccccc5[nH]4)c3)c2)CC1` gave an IC50 of 1290 nM.
For `CCCCCCCN1CC[C@@H](CCCc2ccnc3ccc(OCCCCN=C(N)NO)cc23)[C@@H](CC)C1`, the IC50 was 950 nM.
`CCc1ccc(CNCC(CCNc2cc(=O)c3ccccc3[nH]2)NCc2cc(Br)cc(Br)c2)o1` (centres undefined) was tested, and the IC50 was 640 nM.
`Cc1cc(F)ccc1Nc1nc(N(C)c2ccccc2)c2cccc(OCCO)c2n1` gave an IC50 of 800 nM.
In the case of `Cn1c(CN2CCC(N3CCc4cc(NC(=O)c5ccco5)ccc43)C2)cc2ccccc21` (centres undefined), the IC50 is reported as 880 nM.
Compound `CC(C)Sc1nc(-c2ccccc2)nc2c1COC(C)(C)C2` has an IC50 of 860 nM.
With `CCOc1ccc(-c2nc(NC(=O)CS(=O)(=O)c3ccccc3)sc2C)cc1` the IC50 was 510 nM.
`CC(C)c1cc(Oc2c(I)cc(CCCc3ncc[nH]3)cc2I)ccc1O` gave an IC50 of 1120 nM.
`CCCn1cnc2cc(C(=O)Nc3ccc(-c4cccc(CN(C)C)c4)cc3)ccc2c1=O` showed an IC50 of 930 nM.
Compound `COc1ccc(N2CCN(CCCCNC(=O)c3ccc(NC(=O)c4ccc(Cl)cc4)cc3)CC2)c(C)c1` has an IC50 of 760 nM.
In the case of `FC(F)(F)c1ccc2nc(-c3cccc(-c4cccc(CNCc5cnn(-c6ccccc6)n5)c4)c3)[nH]c2c1`, the IC50 is reported as 550 nM.
`O=C(NC1CCCCC1)N(CCCn1ccnc1)Cc1csc(-c2ccc(CNCc3ccccc3)cc2)n1` showed an IC50 of 840 nM.
For `CCNc1cc(C(=O)N[C@@H](Cc2ccccc2)[C@H](O)CN[C@@H]2CCc3ccccc32)cc(N2CCCC2=O)c1`, the IC50 was 1020 nM.
In the case of `CN1CCN(c2ccc(-c3nc4c(C(N)=O)c(OCc5cc(Cl)cc(Cl)c5)ccc4[nH]3)cc2)CC1`, the IC50 is reported as 660 nM.
With `Fc1cccc(Nc2nc(NCCc3ccc(Cl)cc3)nc(Nc3cccc(F)c3)n2)c1` the IC50 was 1070 nM.
Compound `CN1CCN(CCCNCc2ccc(Nc3nccc(Nc4ccc(Oc5ccccc5)cc4)n3)cc2)CC1` has an IC50 of 630 nM.
For `N/C(=N/C(=NCCCCCCN=C(/N=C(/N)Nc1ccc(Cl)cc1)N1CCOCC1)N1CCOCC1)Nc1ccc(Cl)cc1`, the IC50 was 710 nM.
`COCc1ccc(CN2CCC(C(=O)Nc3ccc(-c4nc5ccccc5[nH]4)cc3)CC2)o1` gave an IC50 of 850 nM.
`FC(F)(F)c1ccc2nc(-c3ccc(-c4cccc(CNCC5CCCO5)c4)cc3)[nH]c2c1` (centres undefined) was tested, and the IC50 was 250 nM.
In the case of `COc1cccc(CN2CCCC(OC(c3ccccc3)c3ccccc3)C2)c1O` (centres undefined), the IC50 is reported as 930 nM.
With `CN(C(=O)/C=C/c1ccccc1F)C1CCN(CCCCCNC(=O)/C=C/c2ccc(Cl)c(Cl)c2)CC1` the IC50 was 510 nM.
For `COCCNCc1ccc(-c2ccc3c(Nc4ccc(Cl)cc4F)ccnc3c2)o1`, the IC50 was 210 nM.
For `CNC(=O)c1ccc2[nH]cc(C3CCN(CC4CCC(NC(=O)/C=C/c5ccccc5Cl)CC4)CC3)c2c1` (centres undefined), the IC50 was 840 nM.
In the case of `O=C(c1cccs1)N1N=C(c2cccs2)CC1c1cccc([N+](=O)[O-])c1` (centres undefined), the IC50 is reported as 820 nM.
`COc1ccc2nc3cc(Cl)ccc3c(NCCO)c2c1` showed an IC50 of 800 nM.
`Nc1nc(N)c(-c2ccccc2)c(=O)[nH]1` was tested, and the IC50 was 1000 nM.
`O=C(NC1CCCC1)c1ccc(N2CCC(NCc3cccc(C(F)(F)F)c3)CC2)cc1` showed an IC50 of 1330 nM.
`Oc1cccc(-c2cnc3ccc(NCc4ccc(F)cc4)nn23)c1` was tested, and the IC50 was 1080 nM.
In the case of `CC(C)c1ccc(CN2CCC(CNC(=O)c3cc(-c4cccc(Cl)c4)cs3)C2)cc1` (centres undefined), the IC50 is reported as 750 nM.
`CCCCc1ccc2nc(NC(=O)OC)[nH]c2c1` was tested, and the IC50 was 680 nM.
`CCc1c(CCNCCCCCCNC(C)Cc2ccc3c(c2CC)OCO3)ccc(OC)c1OC` (centres undefined) showed an IC50 of 870 nM.
For `CCOC(=O)C1CCN(CCCNC(=O)/C(=C/C=C/c2cc3cc(Cl)c(Cl)cc3[nH]2)OC)CC1`, the IC50 was 1040 nM.
With `CC(C)c1ccc(NC(=O)N2CCc3ccc(OCCN(C(C)C)C(C)C)cc32)c(Br)c1` the IC50 was 1090 nM.
For `CCOc1ccc(-c2nonc2NC(=O)c2ccccc2F)cc1OCC`, the IC50 was 840 nM.
For `O=C(Nc1cccc(-c2cccc(CN3CCCC3)c2)c1)c1cccc(Cl)c1`, the IC50 was 1180 nM.
`COc1ccc(NC(=O)/C=C/c2ccccc2Cl)cc1OCCN1CCC(NC2CC2)CC1` gave an IC50 of 840 nM.
`Cc1cc(C(F)(F)F)n2nc(C(=O)N(C)Cc3cncn3Cc3ccc(F)cc3)cc2n1` was tested, and the IC50 was 830 nM.
Work on `Nc1nc(N)c2cc3ccc(OCc4ccccc4)cc3nc2n1` yielded an IC50 of 320 nM.
`NS(=O)(=O)Cc1cccc(-c2ccnc3ccc(-c4cccc(S(N)(=O)=O)c4)cc23)c1` gave an IC50 of 1560 nM.
`Oc1c(C(Nc2ccccn2)c2ccco2)cc(Cl)c2cccnc12` (centres undefined) gave an IC50 of 1010 nM.
With `O=C(Nc1ccccc1)c1cccc(Nc2nccc(Nc3ccc(Oc4ccccc4)cc3)n2)c1` the IC50 was 1550 nM.
`Cc1cccc(Cl)c1S(=O)(=O)Nc1cccc(CCN2CCC(N3CCCCC3)CC2)c1` was tested, and the IC50 was 1110 nM.
`O=C(NCc1cccc(Br)c1)c1ccc(CNC2CCN(Cc3ccccc3)CC2)cc1` was tested, and the IC50 was 870 nM.
With `OC1(c2ccc(Br)cc2)CCN(C2CCN(Cc3ccccc3)CC2)CC1` the IC50 was 600 nM.
`O=C(/C=C/c1ccc(Cl)c(Cl)c1)NC1CCC(CN2CCC(c3c[nH]c4ccccc34)CC2)CC1` (centres undefined) was tested, and the IC50 was 230 nM.
Compound `O=S(=O)(c1cccc(Br)c1)N1CCCCC(c2ccc(C(F)(F)F)cc2)=N1` has an IC50 of 550 nM.
With `Fc1ccc2nccc(NN=CC=Cc3ccccc3)c2c1` the IC50 was 680 nM.
In the case of `O=C(Nc1cccc(Cl)c1)N[C@H]1CCN(Cc2ccc(OCCCN3CCCCC3)cc2)C1`, the IC50 is reported as 730 nM.
For `COCc1cccc(-c2cc(-c3ccc(S(C)(=O)=O)cc3)cnc2N)c1`, the IC50 was 1000 nM.
